The NIST ThermoML archive (doi:10.1021/je301164d)

Conditions: Fluid (supercritical or subcritical phases)

FC(C(F)(F)F)C(F)(F)F [1,1,1,2,3,3,3-heptafluoropropane]
Conditions	speed of sound [m/s]
280 K, 603.72 kPa	494.1
280 K, 1104.4 kPa	498.92
280 K, 1604.7 kPa	503.64
280 K, 2105 kPa	508.26
280 K, 3105.8 kPa	517.26
280 K, 4106.2 kPa	525.95
280 K, 5107.1 kPa	534.35
280 K, 6107.9 kPa	542.49
280 K, 7109.3 kPa	550.4
280 K, 8110 kPa	558.07
280 K, 9110.7 kPa	565.55
280 K, 10111 kPa	572.83
280 K, 12613 kPa	590.29
280 K, 15115 kPa	606.8
280 K, 17616 kPa	622.5
280 K, 20118 kPa	637.48
280 K, 35129 kPa	716.11
280 K, 40132 kPa	739.1
280 K, 45136 kPa	760.88
280 K, 50139 kPa	781.61
280.01 K, 25122 kPa	665.6
280.01 K, 30125 kPa	691.69
299.99 K, 1103 kPa	417.61
299.99 K, 1603.4 kPa	423.61
299.99 K, 2103.8 kPa	429.45
300 K, 3106.4 kPa	440.66
300 K, 4107.2 kPa	451.3
300 K, 5107.9 kPa	461.45
300 K, 6108.6 kPa	471.17
300 K, 7109.4 kPa	480.51
300 K, 8110.1 kPa	489.5
300 K, 9110.1 kPa	498.18
300 K, 10111 kPa	506.58
300 K, 12612 kPa	526.5
300 K, 15114 kPa	545.09
300 K, 17616 kPa	562.57
300 K, 20118 kPa	579.11
300 K, 25122 kPa	609.85
300 K, 30126 kPa	638.04
300 K, 35129 kPa	664.19
300 K, 40132 kPa	688.66
300 K, 45136 kPa	711.71
300 K, 50139 kPa	733.55
320 K, 1104.2 kPa	332.96
320 K, 2104.9 kPa	349.11
320 K, 3105.5 kPa	363.82
320 K, 4105.6 kPa	377.39
320 K, 5106.4 kPa	390.04
320 K, 6107.1 kPa	401.94
320 K, 7107.7 kPa	413.18
320 K, 8108.4 kPa	423.87
320 K, 9109 kPa	434.06
320 K, 10110 kPa	443.83
320 K, 12612 kPa	466.66
320 K, 15113 kPa	487.61
320 K, 17615 kPa	507.06
320 K, 20117 kPa	525.27
320 K, 25120 kPa	558.72
320 K, 30124 kPa	589.03
320 K, 35128 kPa	616.9
320 K, 40131 kPa	642.8
320 K, 45135 kPa	667.06
320.01 K, 50138 kPa	689.95
340 K, 1603.1 kPa	249.98
340 K, 2103.4 kPa	262.38
340 K, 3104.1 kPa	283.96
340 K, 4104.8 kPa	302.59
340 K, 5105.4 kPa	319.17
340 K, 6106 kPa	334.23
340 K, 7106.7 kPa	348.1
340 K, 8108.1 kPa	361.03
340 K, 9108.9 kPa	373.15
340 K, 10110 kPa	384.6
340 K, 12612 kPa	410.84
340 K, 15113 kPa	434.43
340 K, 17615 kPa	456
340 K, 20117 kPa	475.96
340 K, 25120 kPa	512.15
340 K, 30124 kPa	544.54
340 K, 35127 kPa	574.06
340 K, 40130 kPa	601.3
340 K, 45134 kPa	626.7
340 K, 50138 kPa	650.55
360 K, 3604.3 kPa	209.76
360 K, 4104.8 kPa	223.69
360 K, 5105.6 kPa	247.37
360 K, 6106.5 kPa	267.43
360 K, 7107.4 kPa	285.07
360.01 K, 8109.2 kPa	300.98
360.01 K, 9110 kPa	315.53
360.01 K, 10111 kPa	329.01
360.01 K, 12612 kPa	359.17
360.01 K, 15114 kPa	385.62
360.01 K, 17616 kPa	409.39
360.01 K, 20118 kPa	431.12
360.01 K, 25122 kPa	470
360.01 K, 30125 kPa	504.36
360.01 K, 35129 kPa	535.41
360.01 K, 40132 kPa	563.88
360.01 K, 45135 kPa	590.29
360.01 K, 50139 kPa	615
380 K, 7107.3 kPa	224.9
380 K, 8108.1 kPa	244.61
380 K, 9108.9 kPa	262.08
380 K, 10110 kPa	277.88
380 K, 11110 kPa	292.38
380 K, 12111 kPa	305.84
380 K, 13112 kPa	318.45
380 K, 14112 kPa	330.32
380 K, 15113 kPa	341.58
380 K, 17615 kPa	367.5
380 K, 20117 kPa	390.9
380 K, 22618 kPa	412.36
380 K, 25120 kPa	432.25
380 K, 30123 kPa	468.39
380 K, 35127 kPa	500.79
380 K, 40130 kPa	530.34
380 K, 45134 kPa	557.64
380 K, 50137 kPa	583.09
400 K, 10108 kPa	232.81
400 K, 11109 kPa	249.04
400 K, 12109 kPa	263.93
400 K, 13110 kPa	277.75
400 K, 14111 kPa	290.67
400 K, 15112 kPa	302.83
400 K, 16112 kPa	314.36
400 K, 17113 kPa	325.31
400 K, 18114 kPa	335.78
400 K, 19115 kPa	345.8
400 K, 20116 kPa	355.43
400 K, 22618 kPa	378.04
400 K, 25119 kPa	398.88
400 K, 27621 kPa	418.29
400 K, 30123 kPa	436.5
400 K, 35126 kPa	470.02
400 K, 40130 kPa	500.46
400 K, 45133 kPa	528.48
400 K, 50137 kPa	554.55
420 K, 12108 kPa	229.23
420 K, 13109 kPa	243.75
420 K, 14110 kPa	257.31
420 K, 15111 kPa	270.06
420 K, 16111 kPa	282.11
420 K, 17112 kPa	293.55
420 K, 18113 kPa	304.45
420 K, 19114 kPa	314.88
420 K, 20115 kPa	324.88
420 K, 22617 kPa	348.3
420 K, 25118 kPa	369.82
420 K, 27620 kPa	389.82
420 K, 30122 kPa	408.54
420 K, 35125 kPa	442.89
420 K, 40129 kPa	474.01
420 K, 45133 kPa	502.59
420 K, 50136 kPa	529.12
420 K, 55140 kPa	553.96
420 K, 60143 kPa	577.36
420 K, 70150 kPa	620.64
420 K, 80158 kPa	660.12
420 K, 90165 kPa	696.59
